Experimental findings from patent US9198913B2, “Nitroimidazooxazines and their uses in anti-tubercular therapy” (priority 2009, dated 2015) are described below.

A short description of data set [1]: Stability to mouse liver microsomes.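 Also: analyte quantified by LC-MS/MS as ratio to internal standard peak area, mean of duplicates, 60 min value expressed relative to the 0 min level (100%).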 The data set is classed as in vitro ADME. The settings on record: 1 μM, 37° C., 60 min, CD-1 mouse liver microsomes.
Data set [2] is described as follows: Water solubility (sonicated suspension, HPLC).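 As to all read-outs here: concentration in the clear supernatant quantified by HPLC peak area against a DMSO standard solution of the same compound, corrected for dilution and injection volume.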 The class given is physicochemical. The settings on record: in water; for solubility at 15 min: thermodynamic from solid.
Data set [3] can be described thus: In vivo pharmacokinetics in mice.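 As to all read-outs here: plasma and lung samples quantified by LC-MS/MS, dosing as a suspension in aqueous carboxymethylcellulose with Tween 80.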 The settings on record: CD-1 mice, oral, 40 mg/kg; for half-life / Kp / Cmax: mouse; for half-life / Cmax: in vivo, plasma; for half-life: read-out: t½ (h) plasma (converted); for Kp: lung/plasma, read-out: AUC ratio (lung/plasma).
The nature of data set [4]: Stability to human liver microsomes.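 Also: parent compound quantified by LC-MS/MS against an internal standard, duplicates averaged, expressed relative to the 0 min sample taken as 100%.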 The class given is in vitro ADME. The settings on record: 1 μM, 37° C., 60 min, pooled human liver microsomes.

Values after ≈ are worked out from the molar mass of the structure shown. Bounds are passed on as bounds.

As to `O=[N+]([O-])c1cn2c(n1)OC[C@@H](OCc1ccc(-c3ccc(F)cc3)nc1)C2` [Compound 5, (6S)-6-{[6-(4-Fluorophenyl)-3-pyridinyl]methoxy}-2-nitro-6,7-dihydro-5H-imidazo[2,1-b][1,3]oxazine], the “Microsomes (% remaining, 1 h) Mouse” value in data set [1] is given as 80%. Besides, the Solubility in data set [2] was 3.8 µg/mL (≈ 10.3 µM). In data set [3], this molecule returned an AUC lung of 136 µg·h/mL. For the same molecule, in data set [4], the “Microsomes (% remaining, 1 h) Human” value was 88%.

In the case of `O=[N+]([O-])c1cn2c(n1)OC[C@@H](OCc1cnn(-c3ccc(OC(F)(F)F)cc3)c1)C2` [Compound 27, (6S)-2-Nitro-6-({1-[4-(trifluoromethoxy)phenyl]-1H-pyrazol-4-yl}methoxy)-6,7-dihydro-5H-imidazo[2,1-b][1,3]oxazine], the melting point is 150 to 151 °C. Moreover, the “Microsomes (% remaining, 1 h) Mouse” value in data set [1] is recorded as 64%. Further, in data set [4], the “Microsomes (% remaining, 1 h) Human” value was 87%.

Turning to `O=[N+]([O-])c1cn2c(n1)OC[C@@H](OCc1ccc(-c3ccc(OC(F)(F)F)cc3)c(F)c1)C2` [Compound 15, (6S)-6-{[2-Fluoro-4′-(trifluoromethoxy)[1,1′-biphenyl]-4-yl]methoxy}-2-nitro-6,7-dihydro-5H-imidazo[2,1-b][1,3]oxazine], the melting point was in the range of 181 to 183 °C. Besides, the concentration in solution in data set [2] (solubility at 15 min) came to 0.33 µg/mL (≈ 0.728 µM).

As to `O=[N+]([O-])c1cn2c(n1)OC[C@@H](OCc1ccc(-c3ccc(OC(F)(F)F)c(F)c3)nc1)C2` [Compound 21, (6S)-6-({6-[3-Fluoro-4-(trifluoromethoxy)phenyl]-3-pyridinyl}methoxy)-2-nitro-6,7-dihydro-5H-imidazo[2,1-b][1,3]oxazine], in data set [1], the “Microsomes (% remaining, 1 h) Mouse” value was found to be 90%. Moreover, the Solubility in data set [2] was determined as 3.0 µg/mL (≈ 6.6 µM). In data set [3], the AUC lung was 251 µg·h/mL, the half-life was 13.9 h and the Kp amounted to 1.4. Also, in data set [4], the “Microsomes (% remaining, 1 h) Human” value turned out to be 100%.

In turn, `O=[N+]([O-])c1cn2c(n1)OC[C@@H](OCc1ccc(C#Cc3ccc(OC(F)(F)F)cc3)cn1)C2` [Compound 18, (6S)-2-Nitro-6-[(5-{[4-(trifluoromethoxy)phenyl]ethynyl}-2-pyridinyl)methoxy]-6,7-dihydro-5H-imidazo[2,1-b][1,3]oxazine] came in with a melting point of 207 to 208 °C. This molecule also had a solubility at 15 min in data set [2] of 0.36 µg/mL (≈ 0.782 µM). For the same molecule, in data set [3], the AUC lung turned out to be 235 µg·h/mL, the peak level (Cmax) was 2360 ng/mL, the half-life is 23.5 h and the Kp worked out at 2.5.

For `O=[N+]([O-])c1cn2c(n1)OC[C@@H](OCc1ccc(-c3ccc(C(F)(F)F)nc3)cc1)C2` [Compound 9, (6S)-2-Nitro-6-({4-[6-(trifluoromethyl)-3-pyridinyl]benzyl}oxy)-6,7-dihydro-5H-imidazo[2,1-b][1,3]oxazine], the melting point was in the range of 221 to 222 °C. In data set [2], the Solubility stood at 1.0 µg/mL (≈ 2.38 µM). For the same molecule, in data set [3], the AUC lung was 414 µg·h/mL, the concentration peaked (Cmax) at 13500 ng/mL and the Kp turned out to be 1.9. Also, the “Microsomes (% remaining, 1 h) Human” value in data set [4] amounted to 86%.

In turn, `O=[N+]([O-])c1cn2c(n1)OC[C@@H](OCc1cnc(-c3ccc(OC(F)(F)F)cc3)cn1)C2` [Compound 4, (6S)-2-Nitro-6-({5-[4-(trifluoromethoxy)phenyl]-2-pyrazinyl}methoxy)-6,7-dihydro-5H-imidazo[2,1-b][1,3]oxazine] returned a melting point of 182 to 184 °C. The molecule also came in with a Solubility in data set [2] of 2.6 µg/mL (≈ 5.95 µM). This molecule also had an AUC lung in data set [3] of more than 324 µg·h/mL. For the same molecule, the “Microsomes (% remaining, 1 h) Human” value in data set [4] came out at 98%.

For the molecule `O=[N+]([O-])c1cn2c(n1)OC[C@@H](OCc1ccc(C#Cc3ccc(OC(F)(F)F)cc3)nc1)C2` [Compound 33, (6S)-2-Nitro-6-[(6-{[4-(trifluoromethoxy)phenyl]ethynyl}-3-pyridinyl)methoxy]-6,7-dihydro-5H-imidazo[2,1-b][1,3]oxazine], the melting point lay within 235 to 238 °C.

Molecule `O=[N+]([O-])c1cn2c(n1)OC[C@@H](Oc1ccc(-c3ccc(OC(F)(F)F)cc3)cc1)C2` [Compound 13, (6S)-2-Nitro-6-{[4′-(trifluoromethoxy)[1,1′-biphenyl]-4-yl]oxy}-6,7-dihydro-5H-imidazo[2,1-b][1,3]oxazine] displayed a melting point of 210 °C. The molecule also displayed a solubility at 15 min in data set [2] of 3 µg/mL (≈ 7.12 µM). Besides, in data set [3], the AUC lung was 347 µg·h/mL, the half-life is 38 h and the Kp was found to be 3.4.

In the case of `O=[N+]([O-])c1cn2c(n1)OC[C@@H](OCc1ccc(C#Cc3ccc(OC(F)(F)F)cc3)cc1)C2` [Compound 32, (6S)-2-Nitro-6-[(4-{[4-(trifluoromethoxy)phenyl]ethynyl}benzyl)oxy]-6,7-dihydro-5H-imidazo[2,1-b][1,3]oxazine], the melting point was 233 to 236 °C.

As to `O=[N+]([O-])c1cn2c(n1)OC[C@@H](OCc1ccc(-c3ccc(OC(F)(F)F)cc3)cc1)C2` [Compound 3, (6S)-2-Nitro-6-{[4′-(trifluoromethoxy)[1,1′-biphenyl]-4-yl]methoxy}-6,7-dihydro-5H-imidazo[2,1-b][1,3]oxazine], the melting point was in the range of 199 to 201 °C. Moreover, the AUC lung in data set [3] stood at 218 µg·h/mL.

`O=[N+]([O-])c1cn2c(n1)OC[C@@H](OCc1ccc(-c3ccc(OC(F)(F)F)cc3)cn1)C2` [Compound 7, (6S)-2-Nitro-6-({5-[4-(trifluoromethoxy)phenyl]-2-pyridinyl}methoxy)-6,7-dihydro-5H-imidazo[2,1-b][1,3]oxazine] came in with a melting point of 157 to 159 °C. In data set [3], this molecule had an AUC lung of 427 µg·h/mL and a peak concentration (Cmax) of 25900 ng/mL.

Regarding `O=[N+]([O-])c1cn2c(n1)OC[C@@H](OCc1ccn(-c3ccc(OC(F)(F)F)cc3)n1)C2` [Compound 10, (6S)-2-Nitro-6-({1-[4-(trifluoromethoxy)phenyl]-1H-pyrazol-3-yl}methoxy)-6,7-dihydro-5H-imidazo[2,1-b][1,3]oxazine], the melting point is 103 to 105 °C. Also, in data set [1], the “Microsomes (% remaining, 1 h) Mouse” value is recorded as 67%. In addition, in data set [3], the AUC lung stood at 31.5 µg·h/mL, the Cmax amounted to 1510 ng/mL, the half-life was 2.4 h and the Kp amounted to 3.5. Besides, in data set [4], the “Microsomes (% remaining, 1 h) Human” value turned out to be 87%.

Turning to `O=[N+]([O-])c1cn2c(n1)OC[C@@H](OCc1ccc(-c3ccc(F)cc3)nc1)C2` (hydrate or solvate) [Compound 5, (6S)-6-{[6-(4-Fluorophenyl)-3-pyridinyl]methoxy}-2-nitro-6,7-dihydro-5H-imidazo[2,1-b][1,3]oxazine], the melting point is 194 to 196 °C.

As to `O=[N+]([O-])c1cn2c(n1)OC[C@@H](OCc1ccc(C#Cc3ccc(C(F)(F)F)nc3)cn1)C2` [Compound 25, (6S)-2-Nitro-6-[(5-{[6-(trifluoromethyl)-3-pyridinyl]ethynyl}-2-pyridinyl)methoxy]-6,7-dihydro-5H-imidazo[2,1-b][1,3]oxazine], the melting point lay within 226 to 227 °C. The “Microsomes (% remaining, 1 h) Mouse” value in data set [1] came to 91%. Moreover, in data set [4], the “Microsomes (% remaining, 1 h) Human” value was found to be 88%.

In turn, `O=[N+]([O-])c1cn2c(n1)OC[C@@H](OCc1ccc(/C=C/c3ccc(OC(F)(F)F)cc3)cc1)C2` [Compound 31, (6S)-2-Nitro-6-[(4-{(E)-2-[4-(trifluoromethoxy)phenyl]ethenyl}benzyl)oxy]-6,7-dihydro-5H-imidazo[2,1-b][1,3]oxazine] yielded a melting point of 228 to 230 °C. In data set [1], the “Microsomes (% remaining, 1 h) Mouse” value is on record as 98%. For the same molecule, the “Microsomes (% remaining, 1 h) Human” value in data set [4] is recorded as 99%.
